Test results from patent US5843886A, “Method of treating or preventing Type 1 diabetes by oral administration of insulin” (Autoimmune, Inc., priority 1995, dated 1998).
“And” between values parts separate entries of the source, which are not always exact repeats. Equal entries are not always repeated. “Also recorded” adds a separate entry of the source.

Legend:
Format in all cases: in vivo, mouse
NOD mice [1] = experiment: Glucose post oral insulin in fasting 7 week NOD mice; details: for blood glucose after feeding: measured over 24 hours
Procedure: In order to determine whether any endocrinologic (i.e. direct lowering of blood sugar) effects occurred following the feeding of insulin, 7 week old NOD mice (5 mice per group) were fed 1 mg of porcine insulin or 1 mg of myelin basic protein (obtained from Pel Freez, Rogers, AR) as a control protein. Blood glucose was then measured over the next 24 hour period. As a positive control, a separate group of animals were injected subcutaneously with 20 micrograms of Porcine insulin. All animals were kept in the fasting state.

NOD mice [2] = experiment: Aerosol administration of insulin on diabetes in NOD mice (Example 4); details: 0 to 1 mg in aerosol form by nebulizer
Procedure: Insulin (0 to 1 mg as in Examples 1 and 2) will be administered to NOD mice as described above in Examples 1 and 2 except in aerosol form by nebulizer.

NOD mice [3] = experiment: Treatment of initial stages of diabetes in hyperglycemic NOD mice (Example 5); details: 0 to 1 mg, oral and aerosol, start at weeks 12-20 of age
Procedure: Insulin (0 to 1 mg as in Examples 1 and 2) will be administered to NOD mice which are suffering from hyperglycemia in an oral and aerosol form. The treatments will begin by weeks 12-20 of age, by which the serum glucose levels are at hyperglycemic concentrations in a certain percentage of animals prior to onset of diabetes.

NOD mice [4] = experiment: Insulitis in insulin-fed NOD mice (preliminary experiments, data not shown); details: fed 1 mg, compared with PBS-fed NOD mice
Text: Therefore, oral administration of insulin to NOD mice appeared to be affecting the infiltration of immune system cells into the pancreas and thus halting disease progression by preserving beta cell function.

NOD mice [5] = experiment: Spontaneous diabetes in NOD mice after oral feeding
Text: NOD (non-obese diabetic mice) were obtained from Taconic Laboratories (Germantown, Mass.) at 4 weeks of age. There were a total of 30 animals in each of the groups mentioned below at the beginning of the experiment. At 41/2 weeks of age, animals were orally administered Porcine insulin (Novo Laboratories, Danbury, Conn.). Each animal received two treatments orally twice a week until 9 weeks of age. The mice were fed either saline (control) or 10 micrograms, 100 micrograms, or 1 milligram of Porcine insulin. The animals were fed (gavaged) with an 18 gauge ball-point needle (Popper and Sons, Inc., New Hyde Park, N.Y.). Beginning at 10 weeks the animals were then fed once a week for a total of 33 weeks. Beginning at 12 weeks the urine was tested weekly for the presence of glucose using Glucosuria test tape (Eli Lilly, Indianapolis, Ind.). If an animal tested 3+ or higher on the glucose urine test, a serum sample was taken and blood glucose measured using a glucose analyzer (Beckman). If the blood glucose was 220 or higher, the animals were classified as diabetic and then sacrificed. An identical experiment to Example 1 was performed in which NOD mice (14-17 per group) were fed one homogenized pancreas derived from Lewis rats in 0.5 mls PBS. […] Nonetheless, the effect is not as dramatic and complete as that seen in the animals fed insulin.

[6] = 20 micrograms injected subcutaneously, fasting 7 week old mice
[7] = fed 1 mg orally, fasting 7 week old mice

## Porcine insulin
NOD mice [1]; [6]
  decrease in blood glucose level: approximately 80 mg %
  period over which the glucose decrease persisted: 4 h
NOD mice [1]; fed 1 mg orally
  endocrinologic (metabolic) effects: no endocrinologic (metabolic) effects
NOD mice [1]; [7]
  blood glucose after feeding: no drop in the blood glucose
NOD mice [2]
  prevention of the manifestation of symptoms (hyperglycemia) of Type 1 diabetes: effective in preventing the manifestation of symptoms
NOD mice [3]
  beta cell function: preservation of beta cell function
  serum glucose concentrations: reduction in serum glucose concentrations to near normal levels
NOD mice [4]
  inflammatory immune system cells surrounding the pancreas (insulitis): fewer inflammatory immune system cells surrounding the pancreas
NOD mice [5]; all oral doses tested (10 micrograms, 100 micrograms, 1 mg)
  incidence of diabetes: lower incidence of diabetes; also recorded: reduced the numbers of these mice which subsequently went on to develop diabetes
NOD mice [5]; fed 1 mg orally (gavage), twice a week until 9 weeks of age, then once a week, diabetic = blood glucose 220 or higher
  development of diabetes: none of the mice went on to develop diabetes; also recorded: no diabetes developed; also recorded: None of the animals developed diabetes
NOD mice [5]; fed 1 mg, individual non-diabetic animals
  blood sugar on 10 representative animals: 130 mg/dL
NOD mice [5]; fed 10 micrograms orally, same schedule
  development of diabetes: diabetes developed
NOD mice [5]; fed 10 micrograms, individual animals
  blood sugar in animals which developed diabetes: 330 mg/dL and 420 mg/dL and 520 mg/dL
NOD mice [5]; fed 100 micrograms orally, same schedule
  development of diabetes: diabetes developed
NOD mice [5]; fed 100 micrograms, individual animals
  blood sugar in animals that became diabetic: 500 mg/dL and 290 mg/dL and 600 mg/dL and 450 mg/dL
NOD mice [5]; highest oral dose (1 mg)
  treated animals that failed to develop diabetes: 100%

## myelin basic protein
NOD mice [1]; [7]
  blood glucose after feeding: no drop in the blood glucose
